Values of other authors in patent publication US20090093463A1, “NOVEL COMPOUNDS OF SUBSTITUTED AND UNSUBTITUTED ADAMANTYL AMIDES” (AGOURON PHARMACEUTICALS INC., priority 2004, published 2009).

What was measured:
[1] = target: T1, 11-β-hsd-1 (Homo sapiens, UniProt P28845); conditions: ingestion, normal subjects
T1 construct: host or cells: normal subjects (in vivo)

[2] = target: T1, 11-β-hsd-1; conditions: healthy human volunteers

T1 sequence (P28845 whole entry): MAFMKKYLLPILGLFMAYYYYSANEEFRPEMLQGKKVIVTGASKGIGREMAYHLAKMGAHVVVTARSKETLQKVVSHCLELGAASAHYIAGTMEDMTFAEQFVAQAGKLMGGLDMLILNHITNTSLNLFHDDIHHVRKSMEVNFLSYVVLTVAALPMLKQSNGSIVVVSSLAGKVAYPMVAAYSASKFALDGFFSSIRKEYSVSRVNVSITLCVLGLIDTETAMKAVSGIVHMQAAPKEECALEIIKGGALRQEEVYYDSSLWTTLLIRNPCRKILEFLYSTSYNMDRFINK

reduction of intraocular pressure [1]: 20%
hepatic insulin sensitivity [2]: improved
Compound: CC1(C)[C@@H](OC(=O)CCC(=O)O)CC[C@]2(C)[C@H]3C(=O)C=C4[C@@H]5C[C@@](C)(C(=O)O)CC[C@]5(C)CC[C@@]4(C)[C@]3(C)CC[C@@H]12 [carbenoxolone]
